Read-outs that look alike come from different tables or passages of the source.
[1] = heating temp. 60 °C, obs. temp. 25 °C
[2] = section 'Solubility by volumetric flask method', heating temp. 40 °C, obs. temp. 40 °C
[3] = heating temp. 40 °C, obs. temp. 40 °C
[4] = heating temp. 60 °C, obs. temp. 40 °C

C=C1CC[C@@]2(O)C3Cc4ccc(OC(=O)OCCCCCCCCCCC)c5c4[C@@]2(CCN3CC2CC2)[C@H]1O5 [Compound 3, (4aS,7aS,12bS)-3-(cyclopropylmethyl)-4a-hydroxy-7-methylene-2,3,4,4a,5,6,7,7a-octahydro-1H-4,12-methanobenzofuro[3,2-e]isoquinolin-9-yl undecyl carbonate]
Solubility by volumetric flask method: Cottonseed oil [1]: >399.12 mg/mL | Solubility by volumetric flask method: Sesame oil [1]: >400.7 mg/mL | Equilibrium solubility (mg/mL) Water [2]: <0.001 mg/mL

CCCCCCCCCCCOC(=O)OCOc1ccc2c3c1O[C@H]1C(=O)CC[C@@]4(O)C(C2)N(CC2CC2)CC[C@]314 [Compound 4, (((4aS,7aR,12bS)-3-(cyclopropylmethyl)-4a-hydroxy-7-oxo-2,3,4,4a,5,6,7,7a-octahydro-1H-4,12-methanobenzofuro[3,2-e]isoquinolin-9-yl)oxy)methyl undecyl carbonate]
Solubility by volumetric flask method: Cottonseed oil [1]: >395.3 mg/mL | Solubility by volumetric flask method: Sesame oil [1]: >400.4 mg/mL | Equilibrium solubility (mg/mL) Water [2]: <0.001 mg/mL

C=C1CC[C@@]2(O)C3Cc4ccc(OCOC(=O)OCCCCCCCCCCC)c5c4[C@@]2(CCN3CC2CC2)[C@H]1O5 [Compound 5, (((4aS,7aS,12bS)-3-(cyclopropylmethyl)-4a-hydroxy-7-methylene-2,3,4,4a,5,6,7,7a-octahydro-1H-4,12-methanobenzofuro[3,2-e]isoquinolin-9-yl)oxy)methyl undecyl carbonate]
Solubility by volumetric flask method: Cottonseed oil [1]: >401.8 mg/mL | Solubility by volumetric flask method: Sesame oil [1]: >400.6 mg/mL | Equilibrium solubility (mg/mL) Water [2]: <0.001 mg/mL

CCCCCCCC/C=C/CCCCCCCC(=O)Oc1ccc2c3c1O[C@H]1C(=O)CC[C@@]4(O)C(C2)N(CC2CC2)CC[C@]314 [Compound 8, (4aS,7aR,12bS)-3-(cyclopropylmethyl)-4a-hydroxy-7-oxo-2,3,4,4a,5,6,7,7a-octahydro-1H-4,12-methanobenzofuro[3,2-e]isoquinolin-9-yl (E)-octadec-9-enoate]
Approximate Solubility (mg/mL) in Excipient: Cottonseed oil (heating 60 °C, obs. 25 °C, initial failed batch due to non-optimized synthesis): <50 mg/mL | Solubility by volumetric flask method: Sesame oil [1]: >399.8 mg/mL | Equilibrium solubility (mg/mL) Water [2]: <0.001 mg/mL

C=C1CC[C@@]2(O)C3Cc4ccc(OC(=O)CCCCCCCCCCCCCCCCC)c5c4[C@@]2(CCN3CC2CC2)[C@H]1O5 [Compound 12, (4aS,7aS,12bS)-3-(cyclopropylmethyl)-4a-hydroxy-7-methylene-2,3,4,4a,5,6,7,7a-octahydro-1H-4,12-methanobenzofuro[3,2-e]isoquinolin-9-yl stearate]
Approximate Solubility (mg/mL) in Excipient: Cottonseed oil [3]: 100 to 120 mg/mL | Approximate Solubility (mg/mL) in Excipient: Cottonseed oil [1]: <51 mg/mL | Approximate Solubility (mg/mL) in Excipient: Cottonseed oil [4]: >398.5 mg/mL | Approximate Solubility (mg/mL) in Excipient: Ethanol [3]: 65 to 75 mg/mL | Approximate Solubility (mg/mL) in Excipient: Sesame oil [3]: 70 to 95 mg/mL | Approximate Solubility (mg/mL) in Excipient: Sesame oil [1]: <50 mg/mL | Approximate Solubility (mg/mL) in Excipient: Sesame oil [4]: >411.1 mg/mL

C=C1CC[C@@]2(O)C3Cc4ccc(OC(=O)CCCCCCCCCCC/C=C\CCCCCCCC)c5c4[C@@]2(CCN3CC2CC2)[C@H]1O5 [Compound 13, (4aS,7aS,12bS)-3-(cyclopropylmethyl)-4a-hydroxy-7-methylene-2,3,4,4a,5,6,7,7a-octahydro-1H-4,12-methanobenzofuro[3,2-e]isoquinolin-9-yl (Z)-docos-13-enoate]
Approximate Solubility (mg/mL) in Excipient: Cottonseed oil [3]: >381 mg/mL | Approximate Solubility (mg/mL) in Excipient: Cottonseed oil [1]: <50 mg/mL | Approximate Solubility (mg/mL) in Excipient: Ethanol [3]: >214 mg/mL | Approximate Solubility (mg/mL) in Excipient: Sesame oil [3]: >406 mg/mL | Approximate Solubility (mg/mL) in Excipient: Sesame oil [1]: 91 to 121 mg/mL

C=C1CC[C@@]2(O)C3Cc4ccc(OC(=O)CCCCCCC/C=C\C/C=C\C/C=C\CC)c5c4[C@@]2(CCN3CC2CC2)[C@H]1O5 [Compound 20, (4aS,7aS,12bS)-3-(cyclopropylmethyl)-4a-hydroxy-7-methylene-2,3,4,4a,5,6,7,7a-octahydro-1H-4,12-methanobenzofuro[3,2-e]isoquinolin-9-yl (9Z,12Z,15Z)-octadeca-9,12,15-trienoate]
Approximate Solubility (mg/mL) in Excipient: Cottonseed oil [3]: >414 mg/mL | Approximate Solubility (mg/mL) in Excipient: Cottonseed oil [1]: 68 to 82 mg/mL | Approximate Solubility (mg/mL) in Excipient: Ethanol [3]: 157 to 197 mg/mL | Approximate Solubility (mg/mL) in Excipient: Sesame oil [3]: >406 mg/mL | Approximate Solubility (mg/mL) in Excipient: Sesame oil [1]: 80 to 100 mg/mL | Equilibrium solubility (mg/mL) Water [3]: <0.0002 mg/mL

CCCCCCCC/C=C\CCCCCCCCCCCC(=O)Oc1ccc2c3c1O[C@H]1C(=O)CC[C@@]4(O)C(C2)N(CC2CC2)CC[C@]314 [Compound 22, (4aS,7aR,12bS)-3-(cyclopropylmethyl)-4a-hydroxy-7-oxo-2,3,4,4a,5,6,7,7a-octahydro-1H-4,12-methanobenzofuro[3,2-e]isoquinolin-9-yl (Z)-docos-13-enoate]
Approximate Solubility (mg/mL) in Excipient: Cottonseed oil [1]: 67 to 80 mg/mL | Approximate Solubility (mg/mL) in Excipient: Cottonseed oil [4]: >405.9 mg/mL | Approximate Solubility (mg/mL) in Excipient: Ethanol [4]: >397.7 mg/mL | Approximate Solubility (mg/mL) in Excipient: Sesame oil [1]: 67 to 80 mg/mL | Approximate Solubility (mg/mL) in Excipient: Sesame oil [4]: >401.9 mg/mL

CCCCCCCC/C=C/CCCCCCCC(=O)OCOc1ccc2c3c1O[C@H]1C(=O)CC[C@@]4(O)C(C2)N(CC2CC2)CC[C@]314 [Compound 26, (((4aS,7aR,12bS)-3-(cyclopropylmethyl)-4a-hydroxy-7-oxo-2,3,4,4a,5,6,7,7a-octahydro-1H-4,12-methanobenzofuro[3,2-e]isoquinolin-9-yl)oxy)methyl (E)-octadec-9-enoate]
Approximate Solubility (mg/mL) in Excipient: Cottonseed oil [1]: 204.3-239^ mg/mL | Approximate Solubility (mg/mL) in Excipient: Sesame oil [1]: <354 mg/mL | Equilibrium solubility (mg/mL) Water [3]: <0.001 mg/mL

CCCCCCCCCCCCCCOC(=O)OCOc1ccc2c3c1O[C@H]1C(=O)CC[C@@]4(O)C(C2)N(CC2CC2)CC[C@]314 [Compound 27, (((4aS,7aR,12bS)-3-(cyclopropylmethyl)-4a-hydroxy-7-oxo-2,3,4,4a,5,6,7,7a-octahydro-1H-4,12-methanobenzofuro[3,2-e]isoquinolin-9-yl)oxy)methyl tetradecyl carbonate]
Approximate Solubility (mg/mL) in Excipient: Cottonseed oil [1]: >394.7 mg/mL | Approximate Solubility (mg/mL) in Excipient: Sesame oil [1]: >399.2 mg/mL | Equilibrium solubility (mg/mL) Water [3]: <0.001 mg/mL

C=C1CC[C@@]2(O)C3Cc4ccc(OC(=O)OCCCCCCCCCCCCCCCCCCCC)c5c4[C@@]2(CCN3CC2CC2)[C@H]1O5 [Compound 28, (4aS,7aS,12bS)-3-(cyclopropylmethyl)-4a-hydroxy-7-methylene-2,3,4,4a,5,6,7,7a-octahydro-1H-4,12-methanobenzofuro[3,2-e]isoquinolin-9-yl icosyl carbonate]
Approximate Solubility (mg/mL) in Excipient: Cottonseed oil [1]: <50.2 mg/mL | Approximate Solubility (mg/mL) in Excipient: Sesame oil [1]: <50.6 mg/mL | Equilibrium solubility (mg/mL) Water [3]: <0.001 mg/mL

CCCCCCCCCCCCOC(=O)OCOc1ccc2c3c1O[C@H]1C(=O)CC[C@@]4(O)C(C2)N(CC2CC2)CC[C@]314 [Compound 29, (((4aS,7aR,12bS)-3-(cyclopropylmethyl)-4a-hydroxy-7-oxo-2,3,4,4a,5,6,7,7a-octahydro-1H-4,12-methanobenzofuro[3,2-e]isoquinolin-9-yl)oxy)methyl dodecyl carbonate]
Approximate Solubility (mg/mL) in Excipient: Cottonseed oil [1]: >410.2 mg/mL | Approximate Solubility (mg/mL) in Excipient: Sesame oil [1]: >416.5 mg/mL | Equilibrium solubility (mg/mL) Water [3]: <0.001 mg/mL
